Results from the CheMixHub viscosity set.
Values joined by “and” are separate entries in the source; they are usually repeats but may differ in a detail not shown here. Identical values can stand only once. ± gives the uncertainty stated by the source.

Assay: xn = mol fraction of the nth substance listed

O=Cc1ccccc1 + CCCCCO
viscosity [mPa·s], 101.33 kPa
Details	x1 = 0.1001	x1 = 0.2014	x1 = 0.3028	x1 = 0.4151	x1 = 0.5074	x1 = 0.599	x1 = 0.7004	x1 = 0.8063	x1 = 0.9052
293.15 K	3.688 ± 0.38	3.307 ± 0.34	2.964 ± 0.32	2.626 ± 0.29	2.377 ± 0.27	2.153 ± 0.25	1.93 ± 0.23	1.722 ± 0.22	1.547 ± 0.2
303.15 K	2.699 ± 0.3	2.481 ± 0.28	2.281 ± 0.26	2.078 ± 0.25	1.924 ± 0.23	1.783 ± 0.22	1.639 ± 0.21	1.501 ± 0.2	1.383 ± 0.19
313.15 K	2.149 ± 0.25	2.007 ± 0.24	1.874 ± 0.23	1.737 ± 0.22	1.632 ± 0.21	1.534 ± 0.2	1.432 ± 0.2	1.334 ± 0.19	1.247 ± 0.18
323.15 K	1.279 ± 0.18	1.254 ± 0.18	1.229 ± 0.18	1.202 ± 0.18	1.181 ± 0.17	1.16 ± 0.17	1.137 ± 0.17	1.113 ± 0.17	1.092 ± 0.17

NCCO.O=CO + CCO
viscosity [mPa·s], 101 kPa
Details	x2 = 0.6996	x2 = 0.7776	x2 = 0.8461	x2 = 0.9031	x2 = 0.9294	x2 = 0.9544	x2 = 0.9779
293.15 K	12.34 ± 0.62	7.77 ± 0.43	5.01 ± 0.26	3.318 ± 0.16	2.76 ± 0.13	2.28 ± 0.1	1.86 ± 0.083
298.15 K	10.54 ± 0.55	6.762 ± 0.33	4.44 ± 0.21	3 ± 0.14	2.502 ± 0.11	2.064 ± 0.093	1.71 ± 0.076
303.15 K	9.078 ± 0.48	5.97 ± 0.27	3.984 ± 0.17	2.73 ± 0.12	2.268 ± 0.1	1.902 ± 0.084	1.584 ± 0.07

Cc1ccc(C)cc1 + CCCCCCO
viscosity, 101 kPa
Details	x2 = 0.0999	x2 = 0.1999	x2 = 0.2999	x2 = 0.4001	x2 = 0.4997	x2 = 0.6	x2 = 0.7	x2 = 0.8	x2 = 0.8999
303.15 K	0.616 ± 0.006 mPa·s and 0.616 ± 0.012 mPa·s	0.693 ± 0.007 mPa·s and 0.693 ± 0.013 mPa·s	0.799 ± 0.008 mPa·s and 0.799 ± 0.014 mPa·s	0.946 ± 0.01 mPa·s and 0.946 ± 0.015 mPa·s	1.148 ± 0.012 mPa·s and 1.148 ± 0.017 mPa·s	1.42 ± 0.015 mPa·s and 1.42 ± 0.019 mPa·s	1.801 ± 0.019 mPa·s and 1.801 ± 0.023 mPa·s	2.323 ± 0.025 mPa·s and 2.323 ± 0.029 mPa·s	3.004 ± 0.032 mPa·s and 3.004 ± 0.036 mPa·s
313.15 K	0.544 ± 0.006 mPa·s and 0.544 ± 0.012 mPa·s	0.605 ± 0.006 mPa·s and 0.605 ± 0.012 mPa·s	0.689 ± 0.007 mPa·s and 0.689 ± 0.013 mPa·s	0.802 ± 0.008 mPa·s and 0.802 ± 0.014 mPa·s	0.956 ± 0.01 mPa·s and 0.956 ± 0.015 mPa·s	1.156 ± 0.012 mPa·s and 1.156 ± 0.017 mPa·s	1.433 ± 0.015 mPa·s and 1.433 ± 0.019 mPa·s	1.806 ± 0.018 mPa·s and 1.806 ± 0.023 mPa·s	2.295 ± 0.024 mPa·s and 2.295 ± 0.028 mPa·s
323.15 K	0.485 ± 0.005 mPa·s and 0.485 ± 0.012 mPa·s	0.533 ± 0.006 mPa·s and 0.533 ± 0.012 mPa·s	0.6 ± 0.006 mPa·s and 0.6 ± 0.012 mPa·s	0.689 ± 0.007 mPa·s and 0.689 ± 0.013 mPa·s	0.807 ± 0.008 mPa·s and 0.807 ± 0.014 mPa·s	0.958 ± 0.01 mPa·s and 0.958 ± 0.015 mPa·s	1.161 ± 0.012 mPa·s and 1.161 ± 0.017 mPa·s	1.433 ± 0.014 mPa·s and 1.433 ± 0.019 mPa·s	1.788 ± 0.018 mPa·s and 1.788 ± 0.023 mPa·s

c1ccc(Nc2ccccc2)cc1 + CCCCCC(=O)O
323.15 K, 101.33 kPa
Details	viscosity [mPa·s]
x1 = 0.2111	2.271 ± 0.028
x1 = 0.3983	2.789 ± 0.035
x1 = 0.5972	3.497 ± 0.043
x1 = 0.7957	4.496 ± 0.055

O=Cc1ccccc1 + c1ccccc1
viscosity [mPa·s], 101 kPa
Details	x1 = 0.1	x1 = 0.2	x1 = 0.4	x1 = 0.5	x1 = 0.6
298.15 K	0.655 ± 0.018	0.714 ± 0.019	0.847 ± 0.023	0.928 ± 0.025	1.012 ± 0.027
308.15 K	0.583 ± 0.016	0.625 ± 0.017	0.742 ± 0.02	0.809 ± 0.022	0.885 ± 0.024
318.15 K	0.509 ± 0.014	0.551 ± 0.015	0.667 ± 0.018	0.711 ± 0.019	0.773 ± 0.021
323.15 K	0.477 ± 0.013	0.517 ± 0.014	–	0.665 ± 0.018	0.724 ± 0.02

C[N+](C)(C)CCO.[Cl-] + O
Details	viscosity [mPa·s]
298.15 K, 101.33 kPa, x1 = 0.002	0.9099 ± 0.019

O=Cc1ccccc1 + O=[N+]([O-])c1ccccc1
303.15 K, 101 kPa
Details	viscosity [mPa·s]
x1 = 0.3043	1.495 ± 0.07
x1 = 0.6049	1.405 ± 0.066
x1 = 0.9018	1.295 ± 0.061

CCCCCCCCN + C1CCCCC1
303.15 K, 101 kPa
Details	viscosity [mPa·s]
x2 = 0.0971	1.138 ± 0.023
x2 = 0.1959	1.096 ± 0.022
x2 = 0.2997	1.036 ± 0.021
x2 = 0.401	0.97 ± 0.02
x2 = 0.497	0.952 ± 0.019
x2 = 0.5993	0.913 ± 0.018
x2 = 0.6975	0.863 ± 0.017
x2 = 0.7993	0.82 ± 0.017
x2 = 0.896	0.81 ± 0.016

OCCOCCO + C[N+](C)(C)CCO.[Cl-]
viscosity [mPa·s], 101 kPa
Details	293.15 K	298.15 K	303.15 K	313.15 K	323.15 K
x1 = 0.667	52.49 ± 5.3	–	50.39 ± 5.1	35.69 ± 3.6	25.79 ± 2.6
x2 = 0.25	–	55.1 ± 2.1	–	–	–

CCCCCCCCCCCCO + C=CC(=O)OCCCC
viscosity [mPa·s], 101.3 kPa
Details	x2 = 0.075	x2 = 0.2149	x2 = 0.2782	x2 = 0.3968	x2 = 0.5042	x2 = 0.7015	x2 = 0.7849	x2 = 0.8614	x2 = 0.9327	x2 = 0.9651
298.15 K	12.42 ± 0.9	7.842 ± 0.61	6.982 ± 0.56	4.373 ± 0.38	3.244 ± 0.29	1.769 ± 0.17	1.376 ± 0.13	1.197 ± 0.12	0.983 ± 0.097	0.858 ± 0.087
308.15 K	8.748 ± 0.67	5.789 ± 0.48	4.807 ± 0.42	3.38 ± 0.3	2.459 ± 0.22	1.409 ± 0.13	1.135 ± 0.11	1.004 ± 0.099	0.86 ± 0.087	0.732 ± 0.076

CCCC[N+](CCCC)(CCCC)CCCC.[Cl-] + C[C@@H](O)[C@H](N)C(=O)O
Details	viscosity [mPa·s]
313.15 K, 101 kPa, x1 = 0.9	633 ± 160

O=Cc1ccccc1 + CCCCO
viscosity [mPa·s], 101.33 kPa
Details	x1 = 0.1021	x1 = 0.2004	x1 = 0.3089	x1 = 0.4057	x1 = 0.4992	x1 = 0.6014	x1 = 0.6982	x1 = 0.8044	x1 = 0.9027
293.15 K	2.662 ± 0.29	2.48 ± 0.28	2.294 ± 0.26	2.14 ± 0.25	2.001 ± 0.24	1.86 ± 0.23	1.735 ± 0.22	1.608 ± 0.21	1.498 ± 0.2
303.15 K	2.143 ± 0.25	2.025 ± 0.24	1.903 ± 0.23	1.799 ± 0.22	1.705 ± 0.22	1.608 ± 0.21	1.521 ± 0.2	1.43 ± 0.2	1.352 ± 0.19
313.15 K	1.62 ± 0.21	1.563 ± 0.2	1.503 ± 0.2	1.451 ± 0.2	1.403 ± 0.19	1.352 ± 0.19	1.305 ± 0.18	1.256 ± 0.18	1.212 ± 0.18
323.15 K	1.088 ± 0.17	1.086 ± 0.17	1.084 ± 0.17	1.082 ± 0.17	1.081 ± 0.17	1.079 ± 0.17	1.077 ± 0.17	1.075 ± 0.17	1.074 ± 0.17

CCCCCCCCCCCCCCCCCC(=O)OC + C1CCCCC1
viscosity [mPa·s], 101 kPa
Details	x1 = 0.05	x1 = 0.1	x1 = 0.15	x1 = 0.2	x1 = 0.25	x1 = 0.3
298 K	1.22 ± 0.03	1.46 ± 0.03	1.73 ± 0.04	2.03 ± 0.04	2.33 ± 0.05	–
303 K	1.14 ± 0.02	1.35 ± 0.03	1.58 ± 0.03	1.86 ± 0.04	2.12 ± 0.04	2.45 ± 0.05
308 K	1.06 ± 0.02	1.25 ± 0.03	1.46 ± 0.03	1.71 ± 0.04	1.95 ± 0.04	2.2 ± 0.05
313 K	0.99 ± 0.02	1.16 ± 0.02	1.34 ± 0.03	1.58 ± 0.03	1.78 ± 0.04	2.02 ± 0.04

CCCCCCCCCCCCCCCCCC(=O)OC + ClC(Cl)=C(Cl)Cl
viscosity [mPa·s], 101 kPa
Details	x1 = 0.05	x1 = 0.1	x1 = 0.15	x1 = 0.2	x1 = 0.25	x1 = 0.3
298 K	1.41 ± 0.17	1.65 ± 0.2	1.8 ± 0.22	2.14 ± 0.26	2.62 ± 0.32	2.93 ± 0.35
303 K	1.33 ± 0.16	1.55 ± 0.19	1.68 ± 0.2	2.01 ± 0.24	2.36 ± 0.28	2.63 ± 0.32
308 K	1.24 ± 0.15	1.47 ± 0.18	1.58 ± 0.19	1.89 ± 0.23	2.16 ± 0.26	2.4 ± 0.29
313 K	1.17 ± 0.14	1.39 ± 0.17	1.47 ± 0.18	1.76 ± 0.21	1.97 ± 0.24	2.2 ± 0.27

Cc1ccc(C)cc1 + CC#N
308.15 K, 101 kPa
Details	viscosity [mPa·s]
x1 = 0.1008	0.3403 ± 0.0081
x1 = 0.2001	0.3636 ± 0.0085
x1 = 0.2981	0.3915 ± 0.009
x1 = 0.3964	0.4147 ± 0.0094
x1 = 0.4985	0.4387 ± 0.0098
x1 = 0.5923	0.4603 ± 0.01
x1 = 0.6937	0.4799 ± 0.011
x1 = 0.7907	0.4989 ± 0.011
x1 = 0.9051	0.5199 ± 0.011
